Test results: ChEMBL document CHEMBL1128844, “The design, synthesis and evaluation of A,C,D-ring analogs of the fungal metabolite K-76 as complement inhibitors: a potential probe for the absolute stereochemistry at position 2” (1995)

Experiments:
Assay type in all cases: functional
Homo sapiens [1] = organism: Homo sapiens; experiment: Ability to inhibit human complement-mediated erythrocyte lysis by classical pathway at 2000 uM concentration
Homo sapiens [2] = organism: Homo sapiens; experiment: Ability to inhibit human complement-mediated erythrocyte lysis by alternate pathway
Homo sapiens [3] = organism: Homo sapiens; experiment: Ability to inhibit human complement-mediated erythrocyte lysis by classical pathway

Compound: C=C(Cc1c(OC)ccc(C(=O)O)c1O)C1CC[C@](C)(O)C(O)C1 (stereo not given in full)
- inhibition at 2000 µM (Homo sapiens [1]): 24%

Compound: COc1ccc(C(=O)O)c2c1CC(C)(C1CC[C@](C)(O)C(O)C1)O2 (stereo not given in full)
- IH50 (Homo sapiens [2]): >2550 µM
- IH50 (Homo sapiens [3]): 1600 µM

Compound: C[C@@H]1CCC2C(C)(C)[C@H](O)[C@H](O)C[C@]2(C)[C@@]12Cc1c(O)cc(C(=O)[O-])c(C=O)c1O2.[Na+] (stereo not given in full)
- IH50 (Homo sapiens [2]): 850 µM
- IH50 (Homo sapiens [3]): 570 µM
